This note sets out measurements from patent US20260078111A1, “CARBONIC ANHYDRASE ENZYME INHIBITORS AND METHODS OF USE THEREOF” (RUTGERS, THE STATE UNIVERSITY OF NEW JERSEY, priority 2022, published 2026).

Molecules are shown by their SMILES. pIC50: −log10 of the molar value.

The target of one assay is recombinant human Car1 (Homo sapiens, UniProt P00915). In words: Stopped-flow assay of Car1 enzyme inhibition (IC50). The assay is classed as biochemical. How it is done:
Stopped-flow: IC50 values were established using an SX20 stopped-flow spectrometer from […]. In one syringe of the SX20, recombinant human Car1 was kept at a concentration of 9 μM in a sodium phosphate buffer and inhibitors were added to this solution at 0 nM, 10 nM, 20 nM, 80 nM and 100 nM. In a second syringe, a saturated CO2 solution was mixed with 0.2 mM phenol red. This series of dilutions allow for the evaluation of how quickly Car1 can metabolize the CO2 in the absence of an inhibitor and for the determination of whether that process is inhibited as increasing concentrations of compounds are added.

The test system of assay [1] is intestinal mast cell responses. The assay is described as follows: Trichinella spiralis-induced mastocytosis model. The following applies: 2 mg/day i.p., T. spiralis-infected mice, day 10 post-infection. The assay is classed as in vivo. The text has this:
To address this, a model of Trichinella spiralis-induced mastocytosis was employed and the capacity of MZ and 4-(3-hydroxy-1-(4-methoxybenzyl)-2-oxoindolin-3-yl)benzenesulfonamide to inhibit intestinal mast cell responses was directly compared (Henry, E. K., et al., J Exp Med, 2016. 213(9): p. 1663-73). Briefly, mice were infected with T. spiralis and treated with either vehicle, MZ or 4-(3-hydroxy-1-(4-methoxybenzyl)-2-oxoindolin-3-yl)benzenesulfonamide and intestinal mast cells were quantified via esterase staining and histological analysis (Henry, E. K., et al., J Exp Med, 2016. 213(9): p. 1663-73).
Trichinella spiralis infection: Mice were infected with 500 T. spiralis muscle stage larvae by oral gavage and were treated with vehicle (1:5, DMSO/PBS), 2 mg MZ, or 2 mg 4-(3-hydroxy-1-(4-methoxybenzyl)-2-oxoindolin-3-yl)benzenesulfonamide (CAR0037) i.p. daily; mice were sacrificed between on day 10-post infection and mast cell responses in the small intestine were evaluated by esterase staining as described previously (Henry, E. K., et al., J Exp Med, 2016. 213(9): p. 1663-73).

Assay [2] concerns mast cell development from murine bone marrow cells. The assay is described as follows: In vitro mast cell development culture assay (IL-3, flow cytometry). The assay is classed as cell-based, mice. Particulars: for inhibition at 15 µM: Table 3, read-out: POI (percent of inhibition based on MC numbers). Here is the method:
To further test the ability of 4-(3-hydroxy-1-(4-methoxybenzyl)-2-oxoindolin-3-yl)benzenesulfonamide to inhibit mast cell development, an established mast cell culture assay was employed (Henry, E. K., et al., J Exp Med, 2016. 213(9): p. 1663-73). As a positive control for mast cell development, bone marrow cells were isolated from the femur of mice and cultured in the presence of 10 ng/mL of IL-3 and vehicle (1:10, DMSO/RPMI complete media) for seven days and mast cells were identified by flow cytometric analysis as (c-Kit+ FceRIa+ CD49b− cells).
In vitro Mast Cell development: Briefly, 1×10^6 bone marrow-resident progenitor cells were isolated from the femur of mice and cultured in complete media supplemented with 10 ng/mL of rIL-3 for a period of […]. Mast cells were identified by their expression of the surface molecules FcεRIα and c-Kit via flow cytometric analysis. In addition to IL-3, cultures were treated with vehicle or increasing concentrations of Car enzyme inhibitors at the indicated concentrations.

Chain of recombinant human Car1 (P00915 whole entry): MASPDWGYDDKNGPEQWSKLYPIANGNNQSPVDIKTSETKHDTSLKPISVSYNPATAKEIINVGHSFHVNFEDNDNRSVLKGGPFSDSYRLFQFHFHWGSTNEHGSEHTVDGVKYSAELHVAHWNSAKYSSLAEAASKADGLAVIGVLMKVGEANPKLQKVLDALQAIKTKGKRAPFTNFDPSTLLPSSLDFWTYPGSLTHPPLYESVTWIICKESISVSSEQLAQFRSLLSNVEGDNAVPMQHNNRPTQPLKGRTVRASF

For orientation: pIC50 means the IC50 on a negative log10 scale, so that one unit is a factor of ten. For `COc1ccc(CN2C(=O)C(O)(c3ccc(S(N)(=O)=O)cc3)c3ccccc32)cc1` (stereo not drawn) [CAR0037, 4-(3-hydroxy-1-(4-methoxybenzyl)-2-oxoindolin-3-yl)benzenesulfonamide], the pIC50 on recombinant human Car1 was 10.36. Besides, the “intestinal mast cell responses post-infection (esterase staining)” value in assay [1] is listed as “significantly decreased intestinal mast cell numbers”. Also, the “inhibition of mast cell development compared to MZ” value in assay [2] (10 uM, IL-3 10 ng/mL, seven days, versus 126.97 uM MZ) was “inhibited mast cell development as effectively as 126.97 uM of MZ”.
The inhibition is the relative decrease from the control value, in per cent. As for `CC(=O)/N=c1/sc(S(N)(=O)=O)nn1C` [MZ, methazolamide, reference compound], the “intestinal mast cell responses post-infection (esterase staining)” value in assay [1] is recorded as “no changes in mast cell responses”. Besides, the mast cell numbers result in assay [2] (30 μg/mL (126.97 uM), IL-3 10 ng/mL, seven days) is on record as “significantly decreased mast cell numbers”. The inhibition at 126 µM in assay [2] (Mus musculus, Mast cell, read-out: POI of control (percent of inhibition based on MC numbers)) fell in the range of 78 to 100%.
For `COc1ccc2c(N3C(=O)C(O)(c4ccc(S(N)(=O)=O)cc4)c4ccccc43)cccc2c1` (stereo not drawn) [NEM-15A, 4-[3-hydroxy-1-(6-methoxy-1-naphthyl)-2-oxo-indolin-3-yl]benzenesulfonamide], the pIC50 on recombinant human Car1 is 7.45. The “inhibition of mast cell numbers (POI) compared to MZ at 126 uM” value in assay [2] (10 uM) and in assay [2] (15 uM) was “significantly higher inhibition of mast cell numbers than MZ at 126 uM” each time. Besides, in assay [2] (Mus musculus, Mast cell), the inhibition at 15 µM amounted to 100%.
As for `NS(=O)(=O)c1ccc(C2(O)C(=O)N(Cc3ccc(-c4ccncc4)cc3)c3ccccc32)cc1` (stereo not drawn) [NEM-23A, 4-[3-hydroxy-2-oxo-1-[[4-(4-pyridyl)phenyl]methyl]indolin-3-yl]benzenesulfonamide], the pIC50 at recombinant human Car1 is 7.11. The “inhibition of mast cell numbers” value in assay [2] (100 nM, titration, FIG. 3) is “inhibits mast cell numbers”. The “inhibition of mast cell numbers (POI) compared to MZ at 126 uM” value in assay [2] (5 uM), in assay [2] (10 uM) and in assay [2] (15 uM) was “comparable level than MZ at 126 uM” each time. The inhibition at 0.25 µM in assay [2] (Mus musculus, Mast cell, 250 nM, titration, FIG. 3, read-out: inhibition of mast cell numbers) is approximately 50%. The inhibition at 15 µM in assay [2] (Mus musculus, Mast cell) came to 99%.
For the compound `NS(=O)(=O)c1ccc(C2(O)C(=O)N(Cc3ccc(N4CCCC4)cc3)c3ccccc32)cc1` (stereo not drawn) [NEM-24A, 4-[3-hydroxy-2-oxo-1-[(4-pyrrolidin-1-ylphenyl)methyl]indolin-3-yl]benzenesulfonamide], the pIC50 on recombinant human Car1 is 7.35. Also, the inhibition at 15 µM in assay [2] (Mus musculus, Mast cell) was determined as 99%.
The matching figures for `NS(=O)(=O)c1ccc(C2(O)C(=O)N(c3cccc4cc5c(cc34)OCO5)c3ccccc32)cc1` (stereo not drawn) [NEM-37A, 4-(1-benzo[f][1,3]benzodioxol-5-yl-3-hydroxy-2-oxo-indolin-3-yl)benzenesulfonamide]: 8.28 and 100%.
